Assay results published in patent US8586719B2, “Triterpenes for modulating gene expression and cell membrane, and as antiprotozoal agents” (Pacific Arrow Limited, priority 2005, dated 2013).
In brackets after ≈: the same amount, converted by molar mass. Where two headings read alike, the source gives them in different places.

Experiments:
[1] = test system: Leishmania Major (promastigotes); assay: Cell growth of Leishmania parasites by MTT assay; assay type: cell-based; details: for IC50: Leishmania major, read-out: IC50, cytotoxic to Leishmania Major (promastigotes)
Procedure: Method: Leishmania parasites (Leishmania major: MRHO/SU/59/P/LV39) were grown in culture medium in a T75 flask at room temperature. Promastigotes of Leishmania major (approximately 40 million per ml) were used in the experiment. 1.2 ml cell culture was transferred to a well of the 24-wells plate. Saponin Y10 (0.2 ml in medium) with different concentrations (final 6.25-200 ug/ml) was added to culture and cells were grown for 1-5 days at room temperature. At the end of drug-treatment, 150 ul of MTT (5 mg/ml in PBS) was added to each well and incubated for 4 hours. Formazan formed in cells was dissolved with DMSO and the OD at 490 nm was determined by an ELISA reader.

cancer cells = assay: Anticancer activity of alkaline-hydrolysed saponins (cells not stated); assay type: cell-based; details: after removal of acyl groups by alkaline hydrolysis
Fibronectin [2] = assay: Fibronectin secretion from ES2 cells; assay type: cell-based, human
Procedure: (§1) Reduction of Fibronectin secretion from ES2 cells after xanifolia-Y treatment. • (Results of F1, F3, F4, F5, F7, F8, F11, F12A, F15, F16, F17) Data in PCT/US2008/002086, 1188-ALA-PCT, filed Feb. 15, 2008 are incorporated herein by reference • (F11) For lung carcinoma cells (H460), at concentration of 20 ug/ml, there are inhibitions of Fibronectin secretion ranged from 20-60%. • (F12A) For bladder carcinoma cells (HTB-9), Xanifolia-Y (10 ug/ml) inhibits 50% of Fibronectin secretion. • (F15) In liver HepG2 cells. 10 ug/ml of xanifolia-Y inhibits 42% secretion of Fibronectin. • (F16) Incubation of brain glioblastoma T98G cells with 10 ug/ml of xanifolia-Y inhibits 27% Fibronectin secretion and with 20 ug/ml Y inhibits 74% Fibronectin secretion. • (F17) For skin SK-MeI-5 cells, the inhibition is 40-57% with 20 ug/ml of Xanifolia-Y.

Fibronectin [3] = assay: Fibronectin secretion, brain glioblastoma T98G cells; assay type: cell-based, human; details: Brain T98G; 10 ug/ml (table: label suffix -10)
Procedure: as §1

Fibronectin [4] = assay: Fibronectin secretion, skin SK-MEL-5 cells; assay type: cell-based, human; details: Skin SK-MEL-5; concentration 10 (label suffix)
Procedure: as §1

Fibronectin [5] = assay: Fibronectin secretion, liver HepG2 cells; assay type: cell-based, human; details: 10 ug/ml (table: label suffix -10)
Procedure: as §1

Fibronectin [6] = assay: Fibronectin secretion, bladder carcinoma cells (HTB-9); assay type: cell-based, human; details: Bladder HTB-9; 10 ug/ml (table: label suffix -10)
Procedure: as §1

Fibronectin [7] = assay: Fibronectin secretion, lung carcinoma cells (H460); assay type: cell-based, human; details: Lung H460; concentration 10 (label suffix)
Procedure: as §1

[8] = concentration 10 (label suffix; text uses ug/ml)

C/C=C(/C)C(=O)O[C@H]1[C@H](OC(=O)/C(C)=C\C)[C@@]23C(CC1(C)C)[C@]1(CCC4[C@@]5(C)CC[C@H](O)C(C)(C)C5CC[C@@]4(C)[C@]1(C)C[C@H]2O)O[C@@H]3O (stereo partly shown) [ACH-Mb5]
IC50 ([1]; MTT assay, promastigotes): 18 µg/mL (≈ 26.8 µM)

CC1O[C@@H](OC2[C@H](OC3[C@H](O[C@H]4C(O[C@@H]5OC(CO)[C@H](O)[C@@H](O)C5O)[C@H](O[C@H]5CC[C@@]6(C)C(CC[C@]7(C)C6CC[C@]68O[C@H](O)[C@]9(C6CC(C)(C)[C@@H](O)[C@@H]9O)[C@H](O)C[C@]87C)C5(C)C)OC(C(=O)O)[C@H]4O)OC(CO)[C@H](O)[C@H]3O)OC(C)[C@H](O)[C@@H]2O)C(O)[C@@H](O)[C@H]1O (stereo partly shown) [AKOH-Mb5]
cytotoxic to Leishmania Major (promastigotes) ([1]; MTT assay, promastigotes): not cytotoxic | anticancer activity (cancer cells): lost anticancer activity | % inhibition of Fibronectin secretion (Fibronectin [2]; concentration 40 (label suffix)): No effect

CC1(C)CC2C3=CCC4[C@@]5(C)CC[C@H](O[C@@H]6OC(C(=O)O)[C@@H](O)[C@@H](O[C@@H]7O[C@@H](CO)C(O)[C@@H]7O)C6O[C@@H]6OC(CO)[C@H](O)[C@@H](O)C6O)C(C)(C)C5CC[C@@]4(C)[C@]3(C)[C@@H](O)[C@@H](O)[C@@]2(CO)[C@@H](O)[C@@H]1O (stereo partly shown) [AKOH-Y]
cytotoxic to Leishmania Major (promastigotes) ([1]; MTT assay, promastigotes): not cytotoxic | anticancer activity (cancer cells): lost anticancer activity

C/C=C(/C)C(=O)O[C@H]1[C@H](OC(=O)/C(C)=C\C)[C@@]2(CO)C(CC1(C)C)C1=CCC3[C@@]4(C)CC[C@H](O[C@@H]5OC(C(=O)O)[C@@H](O)C(O[C@@H]6OC[C@@H](O)C(O)C6O)C5O[C@@H]5OC(CO)[C@H](O)C(O)C5O)C(C)(C)C4CC[C@@]3(C)[C@]1(C)C[C@H]2O (stereo partly drawn) [Ba1, 3-O-[β-D-galactopyranosyl(1→2)]-β-D-xylopyranosyl(1→3)-β-D-glucuronopyranosyl-21-O-angeloyl, 22-O-angeloyl-3β, 15α, 21β, 22α, 28-pentahydroxyolean-12-ene]
IC50, cytotoxic to Leishmania Major (promastigotes) ([1]; MTT assay, promastigotes): 15 µg/mL (≈ 13.3 µM) | % inhibition of Fibronectin secretion (Fibronectin [3]): 26% | % inhibition of Fibronectin secretion (Fibronectin [2]; [8]): 30% | % inhibition of Fibronectin secretion (Fibronectin [4]): 10% | % inhibition of Fibronectin secretion (Fibronectin [5]): 33% | % inhibition of Fibronectin secretion (Fibronectin [6]): 25% | % inhibition of Fibronectin secretion (Fibronectin [7]): 19%

CC=C(C)C(=O)OC1C(OC(=O)c2ccccc2)C(C)(C)CC2C3=CCC4C5(C)CCC(OC6OC(C(=O)OC)C(O)C(OC7OCC(O)C(O)C7O)C6OC6OC(CO)C(O)C(O)C6O)C(C)(C)C5CCC4(C)C3(C)CC(O)C21CO (stereo not shown) [Ba4]
% inhibition of Fibronectin secretion (Fibronectin [3]): 24% | % inhibition of Fibronectin secretion (Fibronectin [2]; [8]): 28% | % inhibition of Fibronectin secretion (Fibronectin [4]): 10% | % inhibition of Fibronectin secretion (Fibronectin [5]): 28% | % inhibition of Fibronectin secretion (Fibronectin [6]): 30% | % inhibition of Fibronectin secretion (Fibronectin [7]): 18%

CC=C(C)C(=O)OC1C(OC(=O)C(C)=CC)C23C(O)CC4(C)C5(C)CCC6C(C)(C)C(OC7OC(C(=O)O)C(O)C(OC8OC(CO)C(O)C(O)C8OC8OC(C)C(O)C(O)C8OC8OC(C)C(O)C(O)C8O)C7OC7OC(CO)C(O)C(O)C7O)CCC6(C)C5CCC4(OC2O)C3CC1(C)C (stereo not shown) [Mb5]
IC50, cytotoxic to Leishmania Major (promastigotes) ([1]; MTT assay, promastigotes): 15 µg/mL (≈ 10.2 µM) | % inhibition of Fibronectin secretion (Fibronectin [3]): 33% | % inhibition of Fibronectin secretion (Fibronectin [2]; [8]): 35% | % inhibition of Fibronectin secretion (Fibronectin [4]): 15% | % inhibition of Fibronectin secretion (Fibronectin [5]): 35% | % inhibition of Fibronectin secretion (Fibronectin [6]): 28% | % inhibition of Fibronectin secretion (Fibronectin [7]): 25%

C/C=C(/C)C(=O)O[C@H]1[C@H](OC(C)=O)C(C)(C)CC2C3=CCC4[C@@]5(C)CC[C@H](O[C@@H]6OC(C(=O)OCCCC)[C@@H](O)C(O[C@@H]7O[C@@H](CO)C(O)C7O)C6O[C@@H]6OC(CO)[C@H](O)C(O)C6O)C(C)(C)C5CC[C@@]4(C)[C@]3(C)C[C@@H](O)[C@]21CO (stereo partly drawn) [X, 3-O-{[β-D-galactopyranosyl(1→2)]-[α-L-arabinofuranosyl(1→3)]-β-D-glucuronopyranosidebutyl ester}-21-O-acetyl-22-O-angeloyl-3β,16α, 21β,22α, 28-pentahydroxyolean-12-ene]
% inhibition of Fibronectin secretion (Fibronectin [2]; [8]): 39%

C/C=C(/C)C(=O)O[C@H]1[C@H](OC(=O)C(C)C)[C@@]2(CO)C(CC1(C)C)C1=CCC3[C@@]4(C)CC[C@H](O[C@@H]5OC(C(=O)O)[C@@H](O)C(O[C@@H]6O[C@@H](CO)C(O)C6O)C5O[C@@H]5OC(CO)[C@H](O)C(O)C5O)C(C)(C)C4CC[C@@]3(C)[C@]1(C)[C@@H](O)[C@H]2O (stereo partly drawn) [Y0, 3-O-[β-D-galactopyranosyl(1→2)]-α-L-arabinofuranosyl(1→3)-β-D-glucuronopyranosyl-21-O-angeloyl, 22-O-(2-methylpropanoyl)-3β, 15α, 16α, 21β, 22α, 28-hexahydroxyolean-12-ene]
IC50, cytotoxic to Leishmania Major (promastigotes) ([1]; MTT assay, promastigotes): 25 µg/mL (≈ 22.1 µM) | % inhibition of Fibronectin secretion (Fibronectin [2]; [8]): 34%

C/C=C(/C)C(=O)O[C@@H]1C(O)[C@H](O[C@H]2[C@H](OC(C)=O)[C@@]3(CO)C(CC2(C)C)C2=CCC4[C@@]5(C)CC[C@H](O[C@@H]6OC(C(=O)O)[C@@H](O)[C@@H](O[C@@H]7O[C@@H](CO)[C@@H](O)C7O)C6O[C@@H]6OC(CO)[C@H](O)[C@@H](O)C6O)C(C)(C)C5CC[C@@]4(C)[C@]2(C)C[C@H]3O)OC(C)[C@@H]1OC(=O)/C(C)=C\C (stereo partly drawn) [Y1, 3-O-[β-D-galactopyranosyl (1→2)]-α-L-arabinofuranosyl(1→3)-β-D-glucuronopyranosyl-21-O-(3,4-diangeloyl)-α-L-rhamnophyranosyl-22-O-acetyl-3β,16α, 21β, 22α, 28-pentahydroxyolean-12-ene]
IC50 [1]: 23 µg/mL (≈ 17.5 µM)

C/C=C(/C)C(=O)O[C@H]1[C@H](OC(=O)/C(C)=C\C)[C@@]2(CO)C(CC1(C)C)C1=CCC3[C@@]4(C)CC[C@H](O[C@@H]5OC(C(=O)O)[C@@H](O)C(O)C5O[C@@H]5OC(CO)[C@H](O)C(O)C5O)C(C)(C)C4CC[C@@]3(C)[C@]1(C)[C@@H](O)[C@H]2O (stereo partly shown) [Y5]
IC50, cytotoxic to Leishmania Major (promastigotes) ([1]; MTT assay, promastigotes): 16 µg/mL (≈ 15.9 µM)

C/C=C(/C)C(=O)O[C@H]1[C@H](O)[C@@]2(COC(=O)C(C)CC)C(CC1(C)C)C1=CCC3[C@@]4(C)CC[C@H](O[C@@H]5OC(C(=O)O)[C@@H](O)C(O[C@@H]6O[C@@H](CO)C(O)C6O)C5O[C@@H]5OC(CO)[C@H](O)C(O)C5O)C(C)(C)C4CC[C@@]3(C)[C@]1(C)[C@@H](O)[C@H]2O (stereo partly drawn) [Y7, 3-O-[β-D-galactopyranosyl-(1→2)]-α-L-arabinofuranosyl-(1→3)-β-D-glucuronopyranosyl-21-O-angeloyl-28-O-2-methylbutanoyl-3β, 15α, 16α, 21β, 22α, 28-hexahydroxyolean-12-ene]
IC50, cytotoxic to Leishmania Major (promastigotes) ([1]; MTT assay, promastigotes): 18 µg/mL (≈ 15.7 µM) | % inhibition of Fibronectin secretion (Fibronectin [2]; [8]): 34%

C/C=C(/C)C(=O)O[C@H]1[C@H](OC(=O)/C(C)=C/C)[C@@]2(CO)C(CC1(C)C)C1=CCC3[C@@]4(C)CC[C@H](O[C@@H]5OC(C(=O)O)[C@@H](O)C(O[C@@H]6OC[C@@H](O)C(O)C6O)C5O[C@@H]5OC(CO)[C@H](O)C(O)C5O)C(C)(C)C4CC[C@@]3(C)[C@]1(C)C[C@H]2O (stereo partly drawn) [Z12, 3-O-[β-D-galactopyranosyl(1→2)]-β-D-xylopyranosyl(1→3)-β-D-glucuronopyranosyl-21-O-angeloyl, 22-O-tigloyl-3β, 16α, 21β, 22α, 28-pentahydroxyolean-12-ene]
IC50, cytotoxic to Leishmania Major (promastigotes) ([1]; MTT assay, promastigotes): 23 µg/mL (≈ 20.4 µM)
